Test results taken from patent US9365583B2, “Substituted pyrazoles and uses thereof” (Genentech, Inc., priority 2013, dated 2016).

Each compound was assayed against T1, N-terminally GST-tagged DLK (catalytic domain amino acid 1-520) (Homo sapiens, UniProt Q12852) (assay: DLK TR-FRET inhibition assay). Conditions: 5 nM GST-DLK, 40 nM HIS-MKK4 K131M substrate, 30 μM ATP, 60 minutes at ambient temperature.
T1 construct: N-terminally GST-tagged DLK (catalytic domain amino acid 1-520); purchased Carna Bioscience
T1 sequence (Q12852 1-520): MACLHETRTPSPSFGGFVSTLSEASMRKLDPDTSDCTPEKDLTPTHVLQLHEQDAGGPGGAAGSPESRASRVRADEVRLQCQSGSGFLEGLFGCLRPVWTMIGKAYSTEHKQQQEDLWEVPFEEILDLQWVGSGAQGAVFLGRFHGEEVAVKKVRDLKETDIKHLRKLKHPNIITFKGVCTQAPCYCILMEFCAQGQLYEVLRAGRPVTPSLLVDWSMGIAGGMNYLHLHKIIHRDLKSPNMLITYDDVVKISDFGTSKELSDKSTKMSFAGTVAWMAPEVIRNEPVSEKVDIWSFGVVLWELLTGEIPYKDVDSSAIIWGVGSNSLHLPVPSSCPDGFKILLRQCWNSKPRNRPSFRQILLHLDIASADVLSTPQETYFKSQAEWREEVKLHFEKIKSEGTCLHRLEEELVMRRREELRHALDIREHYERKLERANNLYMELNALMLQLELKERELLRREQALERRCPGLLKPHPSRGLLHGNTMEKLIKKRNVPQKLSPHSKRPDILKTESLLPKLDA
Format: biochemical
Experimental: DLK TR-FRET inhibition assay: DLK kinase reactions (20 μL) containing 5 nM N-terminally GST-tagged DLK (catalytic domain amino acid 1-520) (Carna Bioscience), 40 nM N-terminally HIS-tagged MKK4 K131M substrate, and 30 μM ATP in kinase reaction buffer (50 mM HEPES, pH 7.5, 0.01% Triton X-100, 0.01% Bovine γ-Globulins, 2 mM DTT, 10 mM MgCl2 and 1 mM EGTA), and testing compound 1:3 serial diluted starting at 20 uM were incubated at ambient temperature for 60 minutes in 384 well OptiPlate (Perkin Elmer). To quench kinase reactions and detect phosphorylated MKK4, 15 μL of TR-FRET antibody mixture containing 2 nM anti-phosphorylated MKK4 labeled with Europium cryptate (Cisbio) and 23 nM anti-HIS labeled with D2 (Cisbio) in detection buffer (25 mM Tris pH 7.5, 100 mM NaCl, 100 mM EDTA, 0.01% Tween-20, and 200 mM KF) was added to the reaction mixture. The detection mixture was incubated for 3 hours at ambient temperature and the TR-FRET was detected with an EnVision multilabel plate reader (Perkin-Elmer) using the LANCE/DELFIA Dual Enh label from Perkin-Elmer (excitation filter: UV2 (TRF) 320 and emission filters: APC 665 and Europium 615).

Ki	Compound
3.59 nM	CC(C)n1nc(-c2cnc(N)c(C(F)(F)F)c2)cc1[C@H]1[C@@H]2C[C@H](N3CCC3)C[C@@H]21 [compound 30, 5-(5-((1R,3r,5S,6r)-3-(azetidin-1-yl)bicyclo[3.1.0]hexan-6-yl)-1-isopropyl-1H-pyrazol-3-yl)-3-(trifluoromethyl)pyridin-2-amine]
1.1 nM	CC(C)N1CCN([C@H]2C[C@@H]3[C@H](C2)[C@H]3c2cc(-c3cnc(N)c(OC(F)F)c3)nn2C(C)C)CC1 [compound 177, 3-(difluoromethoxy)-5-(1-isopropyl-5-((1R,3r,5S,6r)-3-(4-isopropyl-piperazin-1-yl)bicyclo[3.1.0]hexan-6-yl)-1H-pyrazol-3-yl) pyridin-2-amine]
1.9 nM	CO[C@H]1CCN([C@@H]2C[C@@H]3[C@H](C2)[C@H]3c2cc(-c3cnc(N)c(OC(F)F)c3)nn2CC2CC2)C1 [compound 159, 5-(1-(cyclopropylmethyl)-5-((1R,3s,5S,6S)-3-((S)-3-methoxy-pyrrolidin-l-yl)bicyclo[3.1.0]hexan-6-yl)-1H-pyrazol-3-yl)-3-(difluoromethoxy)pyridin-2-amine]
2.6 nM	CC(C)n1nc(-c2cnc(N)c(OC(F)F)c2)cc1[C@H]1[C@@H]2C[C@@H](N3CC4(CCCO4)C3)C[C@@H]21 [compound 223, 5-(5-((1R,3s,5S,6r)-3-(5-oxa-2-azaspiro[3.4]octan-2-yl)bicyclo [3.1.0]hexan-6-yl)-1-isopropyl-1H-pyrazol-3-yl)-3-(difluoro-methoxy)pyridin-2-amine]
2.7 nM	COC1CCN([C@H]2C[C@@H]3[C@H](C2)[C@H]3c2cc(-c3cnc(N)c(C(F)(F)F)c3)nn2C(C)C)CC1 [compound 251, 5-(1-isopropyl-5-((1R,3r,5S,6r)-3-(4-methoxypiperidin-1-yl)bicyclo[3.1.0]hexan-6-yl)-1H-pyrazol-3-yl)-3-(trifluoromethyl) pyridin-2-amine]
3.06 nM	CC(C)n1nc(-c2cnc(N)c(C(F)(F)F)c2)cc1[C@H]1[C@@H]2C[C@H](N3CCOC3=O)C[C@@H]21 [compound 59, 3-((1R,3r,5S,6r)-6-(3-(6-amino-5-(trifluoromethyl)pyridin-3-yl)-1-isopropyl-1H-pyrazol-5-yl)bicyclo[3.1.0]hexan-3-yl) oxazolidin-2-one]
1.2 nM	CC(C)n1nc(-c2cnc(N)c(OC(F)(F)F)c2)cc1[C@H]1[C@@H]2C[C@H](N3CCCN(C)CC3)C[C@@H]21 [compound 204, 5-(1-isopropyl-5-((1R,3r,5S,6r)-3-(4-methyl-1,4-diazepan-1-yl)bicyclo[3.1.0]hexan-6-yl)-1H-pyrazol-3-yl)-3-(trifluoromethoxy) pyridin-2-amine]
4.2 nM	CC(C)n1nc(-c2cnc(N)c(C(F)(F)F)c2)cc1[C@H]1[C@@H]2C[C@H](N(C)C3COC3)C[C@@H]21 [compound 49, 5-(1-isopropyl-5-((1R,3r,5S,6r)-3-(methyl(oxetan-3-yl)amino)bicyclo[3.1.0]hexan-6-yl)-1H-pyrazol-3-yl)-3-(trifluoromethyl) pyridin-2-amine]
4.11 nM	CC(C)n1nc(-c2cnc(N)c(OC(F)(F)F)c2)cc1[C@H]1[C@@H]2C[C@H](N(C)C3COC3)C[C@@H]21 [compound 47, 5-(1-isopropyl-5-((1R,3r,5S,6r)-3-(methyl(oxetan-3-yl)amino)bicyclo[3.1.0]hexan-6-yl)-1H-pyrazol-3-yl)-3-(trifluoromethoxy) pyridin-2-amine]
3.1 nM	CC(C)n1nc(-c2cnc(N)c(OC(F)F)c2)cc1[C@H]1[C@@H]2C[C@@H](N3C4COCC3C4)C[C@@H]21 [compound 157, 5-(5-((1R,3s,5S,6r)-3-(3-oxa-6-azabicyclo[3.1.1]heptan-6-yl)bicyclo[3.1.0]hexan-6-yl)-1-isopropyl-1H-pyrazol-3-yl)-3-(difluoro-methoxy)pyridin-2-amine]
2.1 nM	CC(C)n1nc(-c2cnc(N)c(OC(F)F)c2)cc1[C@H]1[C@@H]2CC(F)(CN(C)C)C[C@@H]21 (mixture of isomers) [compound 178, 3-(difluoromethoxy)-5-(5-((1R, 5S,6r)-3-((dimethylamino)methyl)-3-fluorobicyclo[3.1.0]hexan-6-yl)-1-isopropyl-1H-pyrazol-3-yl)pyridin-2-amine]
3.05 nM	COC1CN([C@H]2C[C@@H]3[C@H](C2)[C@H]3c2cc(-c3cnc(N)c(OC(F)F)c3)nn2C(C)C)C1 [compound 61, 3-(difluoromethoxy)-5-(1-isopropyl-5-((1R,3r,5S,6r)-3-(3-methoxy-azetidin-1-yl)bicyclo[3.1.0]hexan-6-yl)-1H-pyrazol-3-yl) pyridin-2-amine]
1.8 nM	CC(C)n1nc(-c2cnc(N)c(C(F)(F)F)c2)cc1[C@H]1[C@@H]2C[C@@H](N)C[C@@H]21 [compound 276, 5-(5-((1R,3s,5S,6r)-3-aminobicyclo [3.1.0]hexan-6-yl)-1-isopropyl-1H-pyrazol-3-yl)-3-(trifluoro-methyl)pyridin-2-amine]
2.06 nM	5-(1-isopropyl-5-((1R,3r,5S,6R)- 3-((R)-2-methylmorpholino) bicyclo[3.1.0]hexan-6-yl)-1H- pyrazol-3-yl)-3-(trifluoromethyl) pyridin-2-amine [compound 2]
2.6 nM	CO[C@@H]1CCN([C@@H]2C[C@@H]3[C@H](C2)[C@H]3c2cc(-c3cnc(N)c(C(F)(F)F)c3)nn2C(C)C)C1 [compound 192, 5-(1-isopropyl-5-((1R,3s,5S,6R)-3-((R)-3-methoxypyrrolidin-1-yl)bicyclo[3.1.0]hexan-6-yl)-1H-pyrazol-3-yl)-3-(trifluoromethyl) pyridin-2-amine]
1.4 nM	CO[C@@H]1CCN([C@@H]2C[C@@H]3[C@H](C2)[C@H]3c2cc(-c3cnc(N)c(OC(F)(F)F)c3)nn2C(C)C)C1 [compound 193, 5-(1-isopropyl-5-((1R,3s,5S,6R)-3-((R)-3-methoxypyrrolidin-1-yl)bicyclo[3.1.0]hexan-6-yl)-1H-pyrazol-3-yl)-3-(trifluoromethoxy) pyridin-2-amine]
75.6 nM	CC(C)n1nc(-c2cnc3ccn([C@H](C)c4ccccn4)c3c2)cc1[C@H]1[C@@H]2C[C@H](N3CCOCC3)C[C@@H]21 [compound 26, 4-((1R,3R,5S,6r)-6-(1-isopropyl-3-(1-((R)-1-(pyridin-2-yl)ethyl)-1H-pyrrolo[3,2-b]pyridin-6-yl)-1H-pyrazol-5-yl)bicyclo[3.1.0]hexan-3-yl)morpholine]
1.6 nM	Nc1ncc(-c2cc([C@H]3[C@@H]4C[C@@H](N5CCOCC5)C[C@@H]43)n(CC3CC3)n2)cc1OC(F)F [compound 279, 5-(1-(cyclopropylmethyl)-5-((1R,3s,5S,6r)-3-morpholinobicyclo [3.1.0]hexan-6-yl)-1H-pyrazol-3-yl)-3-(difluoromethoxy)pyridin-2-amine]
2.1 nM	CC(C)n1nc(-c2cnc(N)c(OC(F)(F)F)c2)cc1[C@H]1[C@@H]2C[C@H](N3CCN(C)C[C@@H]3C)C[C@@H]21 [compound 240, 5-(5-((1R,3r,5S,6S)-3-((S)-2,4-dimethylpiperazin-1-yl)bicyclo [3.1.0]hexan-6-yl)-1-isopropyl-1H-pyrazol-3-yl)-3-(trifluoromethoxy) pyridin-2-amine]
1.28 nM	CC(C)n1nc(-c2cnc(N)c(C(F)(F)F)c2)cc1[C@H]1[C@@H]2C[C@@H](N3CCOC[C@@H]3C)C[C@@H]21 [compound 103, 5-(1-isopropyl-5-((1R,3s,5S,6S)-3-((S)-3-methylmorpholino)bicyclo[3.1.0]hexan-6-yl)-1H-pyrazol-3-yl)-3-(trifluoromethyl) pyridin-2-amine]
1.58 nM	Nc1ncc(-c2cc([C@H]3[C@@H]4C[C@H](N5CCOCC5)C[C@@H]43)n(C3CCC3)n2)cc1OC(F)F [compound 134, 5-(1-cyclobutyl-5-((1R,3r,5S,6r)-3-morpholinobicyclo[3.1.0]hexan-6-yl)-1H-pyrazol-3-yl)-3-(difluoromethoxy)pyridin-2-amine]
1.2 nM	CC(C)n1nc(-c2cnc(N)c(OC(F)(F)F)c2)cc1[C@H]1[C@@H]2C[C@@H](N3CCOCC3)C[C@@H]21 [compound 68, 5-(1-isopropyl-5-((1R,3s,5S,6r)-3-morpholinobicyclo[3.1.0]hexan-6-yl)-1H-pyrazol-3-yl)-3-(trifluoromethoxy)pyridin-2-amine]
